The source of these data is patent publication US10512667B2, “Compositions and methods for treating conditions related to adrenocortical activity and/or excessive steroid production” (The Regents of the University of Michigan, priority 2017, dated 2019).

Each structure is given as a SMILES string. Entries after “also recorded” stand apart in the source; their conditions may differ.

The test system of assay [1] is H295R cells. Put plainly: Visualization of cholesterol levels by filipin III binding. Format: cell-based. As to conditions: H295R cells. The protocol:
(§1) The cells were seeded in 96-well ibiTreat μ-Plates and allowed to adhere for 48 h prior to the start of each experiment. Cholesterol was detected in fixed cells by incubating with 100 μg/ml filipin III at 37 C for 2 h. […] Images were captured using either a 4× or a 60× objective. Cholesterol esterification was visualized by culturing the cells with 1 μM NBD-cholesterol for 2 h following incubation with the indicated compounds. […] Images were captured using either a 20× or a 60× objective.
(§2) The medium was removed and immediately replaced with 100 μl of 4% paraformaldehyde and the cells were fixed at room temperature for 20 min. The cells were washed twice with 200 μl PBS. […] The fixed cells were incubated with filipin III at 37 C in the dark for 2 h.

Assay [2] relates to BD140C cells. The description is as above. Format: cell-based. As to conditions: 4 h. The protocol:
as §1, §2

Assay [3] concerns H295R cells. Put plainly: Caspase 3/7 activity (Apo-ONE). The format is cell-based. As to conditions: H295R cells; for caspase 3/7 activity, compound alone: serum-containing medium. Here is the method:
(§3) The samples were incubated for 18 h at room temperature in the dark. The fluorescence was measured using a SpectraMax M5 microplate reader with a 0.5 s acquisition time.

The test system of assay [4] is BD140C cells. Put plainly: Caspase 3/7 activity (Apo-ONE). Format: cell-based. The protocol:
as §3

For assay [5], the system named is BD140C cells. Put plainly: Cellular ATP level (CellTiter-Glo). Format: cell-based. Background: In ATP-based viability assays light output follows the ATP content of the culture.
Procedure: The ATP levels of cells were measured by lysis in CellTiter-Glo reagent (Promega), and measurement of the luminescence.
After 48 h, 20-80 μl of medium was removed from each well and replaced with 20 μl of each compound diluted to 6× of the final concentration in the culture medium to produce a final volume of 120 μl. The cells were incubated at 37 C in 5% CO2 atmosphere for a time ranging from 15 min to 24 h. The medium was removed and immediately replaced with 50 μl of CellTiter-Glo luminescence cell viability assay reagent (Promega). The cells were lysed by agitation at room temperature for 20 min in the dark. The luminescence was measured using a SpectraMax M5 microplate reader (Molecular Devices) with a 0.5 s acquisition time. The luminescence (RLU) values for control cells ranged from 5000 to 20000 RLU in all experiments, and were scaled by a factor of 0.001 to plot all graphs.
Assay [6] deals with H295R cells. Put plainly: Cholesterol efflux into serum-free medium with apoA1. Format: cell-based. The following applies: serum-free medium containing apoA-I, 4 h. Here is the method: Cholesterol efflux was measured by replacing the culture medium with serum-free medium supplemented with 5 μg/ml apoA1 (Sigma) and the indicated compounds. After the indicated time, the serum-free medium was collected, and the cholesterol concentration was measured using the fluorometric enzyme-linked assay (Cayman Chemical).
After 48 h, the medium was removed and replaced with 50 μl serum-free medium supplemented with 5 μg/mL apoA1. After the indicated time, the supernatant containing the effluxed cholesterol, was transferred to a new 96-well plate. A cholesterol detection reagent (Cayman Chemical) consisting of cholesterol assay buffer, cholesterol assay detector (10-acetyl-3,7-dihydroxyphenoxazine [ADHP]), horseradish peroxidase, cholesterol oxidase, and cholesterol esterase was added, and the reactions were incubated for 30 min at 37 C. The fluorescence intensities were measured using ex. […] 590 nm. The cholesterol concentrations were calculated by interpolation between the values produced by cholesterol standards that were analyzed in parallel.

Assay [7] concerns H295R cells. The assay can be described thus: Cortisol secretion (indirect ELISA). As to conditions: cortisol in medium, 4 h or time course. Format: cell-based. Here is the method:
Cortisol secretion was measured by replacing the culture medium with fresh medium containing the indicated compounds. The medium was collected at the indicated times. The cortisol concentration in the medium was measured using indirect ELISA (Arbor Assays).
After 48 h, the medium was removed and replaced with 50 μl of fresh medium. After the indicated incubation time, aliquots of the supernatant ranging from 0.5 to 10 μl were diluted in 50 μl of medium were used to measure the amount of cortisol secreted. Cortisol detection and quantification were performed by indirect ELISA according to the manufacturer's protocol (Arbor Assays #K003).

A further assay relates to ACAT. As to conditions: cited from earlier work.
For assay [8], the system named is H295R cells. The assay can be described thus: Visualization of NBD-cholesterol esterification. Format: cell-based. As to conditions: compound 2 h then 2 h with NBD-cholesterol, hydrochloride. Here is the method: (§4) The cells were seeded in 96-well ibiTreat μ-Plates and allowed to adhere for 48 h prior to the start of each experiment. Cholesterol was detected in fixed cells by incubating with 100 μg/ml filipin III at 37 C for 2 h. The bound filipin III was imaged by fluorescence microscopy using 377/11 nm excitation and 447/60 nm emission wavelengths. Images were captured using either a 4× or a 60× objective. Cholesterol esterification was visualized by culturing the cells with 1 μM NBD-cholesterol for 2 h following incubation with the indicated compounds. NBD-cholesterol esters were imaged by fluorescence microscopy using 485/20 nm excitation wavelengths. Images were captured using either a 20× or a 60× objective.
(§5) The cells were seeded in 96-well ibiTreat μ-Plates (Ibidi) in 100 μl at a density of 50,000 cells per well. […] 5 μl of NBD-cholesterol was added to each well to produce a final concentration of 1 μM. When NBD-cholesterol is esterified and localized to cytoplasmic lipid droplets, it produces bright fluorescent foci in the cell. The inhibition of ACAT activity prevents fluorescent focus formation by NBD-cholesterol (see, e.g., Lada, et al., 2004 J Lipid Res, 45, 378-86). After 1.5 h, 5 μl of Hoechst 33342 was added to each well to produce a final concentration of 3 μg/ml. After 30 min, the medium was replaced with fresh medium. NBD-cholesterol esterification was visualized by fluorescence microscopy using either 485/20 nm (NBD) or 387/11 nm (Hoechst) excitation wavelengths and images were captured using either a 60× oil objective or a 20× objective.

For assay [9], the system named is BD140C cells. Put plainly: Visualization of NBD-cholesterol esterification. Format: cell-based. As to conditions: compound 2 h then 2 h with NBD-cholesterol. The protocol:
as §4, §5

Assay [10] has as its system H295R cells. Put plainly: Cellular ATP level (CellTiter-Glo). As to conditions: H295R cells, serum-containing medium.
The next assay has as its system ABCG1. The assay can be described thus: Transcript measurement by qPCR in H295R cells. The format is cell-based. The following applies: 4 h, hydrochloride. The protocol: (§6) mRNA was isolated (Qiagen), and was reverse transcribed using the Transcriptor First Strand cDNA synthesis kit (Roche). The relative amounts of cDNAs corresponding to the indicated transcripts were quantified using qPCR assays with specific primers (Table 2).
(§7) H295R cells were seeded in 6-well tissue culture plates (Corning #3506) at a density of 5 X105 per well. After 48 h, the compound(s) indicated were added, and the cells were cultured for the indicated time. The cells were harvested in 1.35 ml culture medium with trypsin. The cells were collected by centrifugation and lysed in 350 μl of RLT buffer (Qiagen) with β-mercaptoethanol. mRNA extraction and DNase treatment were performed according to the manufacturer's protocol (Qiagen). All RNA samples had 260/280 ratios greater than 1.5. The same amount of RNA ranging from 0.1 to 0.5 μg was used for reverse transcription using the Roche Transcriptor First Strand cDNA synthesis kit (Roche #04897030001) using the manufacturer's protocol. SYBR Green I-based real-time qPCR assays were performed using a Roche LightCycler480 instrument. The levels of transcripts in different samples were normalized by the levels of RPL9 transcripts.
In general terms: In qPCR the cycle at which signal appears reflects the starting amount.

The subject of a further assay is ABCA1. The assay can be described thus: Transcript measurement by qPCR in H295R cells. The format is cell-based. The following applies: 4 h, hydrochloride. Here is the method: as §6, §7
The test system of another assay is CHOP. The assay can be described thus: Transcript measurement by qPCR in H295R cells. Format: cell-based. As to conditions: 4 h. The protocol:
as §6, §7

A further assay relates to adrenal cortex. The following applies: in vivo; cited from earlier work.
The mark [11] stands for this setting: serum-free, 50 μM each glibenclamide, benzamil, zosuquidar, 10 μM PD129337, 4 mM MβCD.

Consider `CC(C)c1cccc(C(C)C)c1NC(=O)NCC1(c2ccccc2)CCCC1.Cl` [PD129337, N-(2,6-bis(1-methylethyl)phenyl)-N′-((1-(phenyl)cyclopentyl)methyl)urea hydrochloride], for which the “cholesterol level / accumulation (filipin III binding), compound alone” value was “did not cause cholesterol accumulation” in the assay with H295R cells [1] (serum-containing medium, up to 4 h) and “did not cause cholesterol accumulation” with BD140C cells [2]. Moreover, in the assay on H295R cells [1] (setting [11]), the “cholesterol level with combinations of ABC transporter inhibitors” value is recorded as “further increased the cholesterol level”. Also, the “caspase 3/7 activity, compound alone” value in the assay on H295R cells [3] (4 h) is “did not cause ATP depletion or caspase activation”; with H295R cells [3] (24 h, hydrochloride), “did not reduce the ATP level or increase the caspase 3/7 activity; also recorded: no detectable effect”; in the assay on BD140C cells [4] (4 h), “did not cause ATP depletion or caspase activation”; in the assay with BD140C cells [4] (24 h, hydrochloride), “did not reduce the ATP level or increase the caspase 3/7 activity; also recorded: no detectable effect”. Further, the “caspase 3/7 activity with combinations of ABC transporter inhibitors” value in the assay on H295R cells [3] (setting [11]) is “did not enhance ATP depletion or caspase 3/7 activation”. Further, the “ATP level, compound alone” value with BD140C cells [5] (4 h) is given as “did not cause ATP depletion”; with BD140C cells [5] (24 h, hydrochloride), “did not reduce the ATP level; also recorded: no detectable effect”; with H295R cells [10] (4 h) it was “did not cause ATP depletion”; with H295R cells [10] (24 h, hydrochloride) it was “did not reduce the ATP level; also recorded: no detectable effect”. Besides, the “cholesterol efflux, compound alone” value with H295R cells [6] is “no detectable effect on cholesterol efflux”. Also, the “cortisol secretion, compound alone” value in the assay with H295R cells [7] is “did not reduce, but rather increased, cortisol secretion”. Besides, in the assay on ACAT, the ACAT activity result was “inhibit ACAT activity”. Also, the “NBD-cholesterol esterification and accumulation in lipid droplets” value is “inhibited cholesterol esterification more efficiently than ATR-101; also recorded: inhibited NBD-cholesterol accumulation more effectively than ATR-101; also recorded: eliminated both the intense foci and the diffuse fluorescence” with H295R cells [8]; “inhibited NBD-cholesterol esterification” in the assay on BD140C cells [9]. Moreover, in the assay on ABCG1, the ABCG1 transcript level entry is listed as “inhibited; also recorded: equivalent effects”. Besides, the ABCA1 transcript level result in the assay with ABCA1 is recorded as “inhibited; also recorded: equivalent effects”. For the same molecule, in the assay on CHOP, the CHOP transcript level entry was “activated”. Further, the adrenalytic activity entry with adrenal cortex is listed as “only ATR-101 has adrenalytic activity”.
